In patent US20210198256A1, “COMPOUNDS FOR THE DEGRADATION OF BRD9 OR MTH1” (C4 Therapeutics, Inc., priority 2018, published 2021):

These compounds were tested on SMARTCAR-MTH1-wt-HiBiT (Jurkat.7 cells) (assay: HiBit Lytic Assay (HiBit DC50, MTH1 degraders of Table 2)). Settings: Jurkat.7 SMARTCAR-MTH1-wt-HiBiT cells, compound treatment time 4 hr, 11-point half log dose response.
Type: cell-based, human
Procedure: Example 3. HiBit Lytic Assay
• Compound is made at 10 mM, half log dilution, 11 points. • MDR plates can also be ordered from Frontier with same format. • 1. Barcode a 384LDV plate (384-well Low Dead Volume Microplate, Labcyte LP-0200) (Echo compatible) on the left side. • 2. Transfer 13.6 μL of 10 mM compound into column 1 of LDV plate (Labcyte). • 3. Fill column 2-11 and column 23 of MDR plate with 9.30 μL of DMSO. • 4. Serial dilute 3.16 fold from column 1 to 2 by transferring 4.30 μL from column 1 to column 2, and so on to column 11. *Change tip in every dilution to prevent compound carryover effect! • 5. Seal the plate with Plate Sealer, then store the MDR plate at room temperature for short term storage and in −20° C. for long term storage.
• Cells are treated with 30 nL of each compound at 10 mM, half log dilution, 11 points with final concentration of 1000 nM or 833 nM, half log dilution, 11 points, in duplicates. Final DMSO concentration is 0.1%. • 1. Barcode the plates made on the left side and label the plates with silver marker. • 2. Dispense with the following scheme: • a. 30 nL of compound into corresponding wells in cell plates via Echo550 with “MDR32_HiBiT16_30 nL”. Top concentration will be 1000 nM. • 3. Seal the plate with Plate Sealer.
• Cells are dispensed at density specified in Cell Line Table in 384-well microplate. • 1. Culture cells to between 50-80% of confluence in sterile culture flasks of appropriate size. • 2. For Adherent Cell Lines: • a. Aspirate off growth media in culture flask, and wash off the Phenol Red media with 5 mL of 1×PBS. • b. Add 5 mL of Trypsin to the cells, incubate at 37° C. for 5 minutes. • c. Add 5 mL of growth media to the trypsinzed cells, and resuspend. • 3. Remove 10 μL of cells, and resuspend the cells with 10 μL of Trypan Blue. Insert the solution to counting chamber slide, and count the cells via cell counter. • 4. Adjust the cell concentration to specified plating density, and strain the cells with cell strainer. • 5. Dispense the cells via E1-ClipTip™ Electronic Multichannel Pipettes or Multidrop™ Combi Reagent Dispenser with Standard tube dispensing cassette: • a. Prime the cassette with 10-20 mL of ddH2O. • b. Prime the cassette with 10-20 mL of cells. • c. Dispense the cells at low speed for 30 μL/well in Corning® 384 Well Low Flange Black Flat Bottom Polystyrene TC-Treated Microplate. • d. Wash the cassette with 10-20 mL of ddH2O, follow by 10-20 mL of 70% EtOH, then again with 10-20 mL of ddH2O. • 6. Incubate the plates at 37° C.×compound treatment time.
• 1. If not already, bring Nano-Glo® HiBiT Lytic Buffer to room temperature. • 2. Determine the amount of reagent needed. A volume of reagent equal to the volume of media in the well should be added (i.e. 30 μL of cells will need 30 μL of HiBiT Lytic reagent). • 3. Into a given volume of buffer, dilute the substrate 50-fold and the LgBiT protein 100-fold. For example, to make 10 ml of reagent, add the following: • 10 ml Nano-Glo® HiBiT Lytic Buffer • 200 μl Nano-Glo® HiBiT Lytic Substrate • 100 μl LgBiT Protein • The reagent should be reconstituted immediately before use. However, once reconstituted, it should take about 4 hours for the activity to decrease 10%. • 4. Cool down the cell plate to room temperature for 10-15 minutes without lid. • 5. Dispense the HiBiT Lytic Reagent via E1-ClipTip™ Electronic Multichannel Pipettes or Multidrop™ Combi Reagent Dispenser with Standard tube dispensing cassette: • a. Prime the cassette with 10-20 mL of ddH2O. • b. Prime the cassette with 10-20 mL of CTG 2.0. • c. Dispense the HiBiT Lytic Reagent at medium speed for 30 μL/well in cell plate to column 1-23 (column 24 will be used as plate background). • d. Wash the cassette with 10-20 mL of ddH2O, follow by 10-20 mL of 70% EtOH, then again with 10-20 mL of ddH2O. • 6. Incubate the cell plate at room temperature for 10 minutes without lid. • 7. […]

DC50, < 0.1 µM:
CNC(=O)c1cnc2ccc(-c3cnn(CCCCCCNC(=O)COc4cccc5c4C(=O)N(C4CCC(=O)NC4=O)C5=O)c3)cc2c1Nc1ccccc1 (stereo not drawn) [Compound 360, 4-anilino-6-[1-[6-[[2-[2-(2,6-dioxo-3-piperidyl)-1,3-dioxo-isoindolin-4-yl]oxyacetyl]amino]hexyl]pyrazol-4-yl]-N-methyl-quinoline-3-carboxamide]
CNC(=O)c1cnc2ccc(-c3ccc(C(=O)NCCCNC(=O)C(C)Nc4cccc5c4C(=O)N(C4CCC(=O)NC4=O)C5=O)cc3)cc2c1Nc1ccccc1 (stereo not drawn) [Compound 363, 4-anilino-6-[4-[3-[2-[[2-(2,6-dioxo-3-piperidyl)-1,3-dioxo-isoindolin-4-yl]amino]propanoylamino]propylcarbamoyl]phenyl]-N-methyl-quinoline-3-carboxamide]
CNC(=O)c1cnc2ccc(-c3ccc(NCCCCNC(=O)CNc4cccc5c4C(=O)N(C4CCC(=O)NC4=O)C5=O)nc3)cc2c1Nc1ccccc1 (stereo not drawn) [Compound 365, 4-anilino-6-[6-[4-[[2-[[2-(2,6-dioxo-3-piperidyl)-1,3-dioxo-isoindolin-4-yl]amino]acetyl]amino]butylamino]-3-pyridyl]-N-methyl-quinoline-3-carboxamide]
CNC(=O)c1cnc2ccc(-c3ccc(C(=O)NCCCCNC(=O)C(C)Nc4cccc5c4C(=O)N(C4CCC(=O)NC4=O)C5=O)c(F)c3)cc2c1Nc1ccccc1 (stereo not drawn) [Compound 372, 4-anilino-6-[4-[4-[2-[[2-(2,6-dioxo-3-piperidyl)-1,3-dioxo-isoindolin-4-yl]amino]propanoylamino]butylcarbamoyl]-3-fluoro-phenyl]-N-methyl-quinoline-3-carboxamide]
CNC(=O)c1cnc2ccc(-c3ccc(C(=O)NCCCCNC(=O)CCc4cccc5c4CN(C4CCC(=O)NC4=O)C5=O)cc3)cc2c1Nc1ccccc1 (stereo not drawn) [Compound 374, 4-anilino-6-[4-[4-[3-[2-(2,6-dioxo-3-piperidyl)-1-oxo-isoindolin-4-yl]propanoylamino]butylcarbamoyl]phenyl]-N-methyl-quinoline-3-carboxamide]
CNC(=O)c1cnc2cc(C(F)(F)F)c(-c3ccc(C(=O)NCCCCNC(=O)CNc4cccc5c4C(=O)N(C4CCC(=O)NC4=O)C5=O)c(F)c3)cc2c1Nc1ccccc1 (stereo not drawn) [Compound 375, 6-(4-((4-(2-((2-(2,6-dioxopiperidin-3-yl)-1,3-dioxoisoindolin-4-yl)amino)acetamido)butyl)carbamoyl)-3-fluorophenyl)-N-methyl-4-(phenylamino)-7-(trifluoromethyl)quinoline-3-carboxamide]
CNC(=O)c1cnc2cc(OC)c(-c3ccc(C(=O)NCCCCn4cc(CNc5cccc6c5C(=O)N(C5CCC(=O)NC5=O)C6=O)nn4)cn3)cc2c1Nc1ccccc1 (stereo not drawn) [Compound 376, 6-(5-((4-(4-(((2-(2,6-dioxopiperidin-3-yl)-1,3-dioxoisoindolin-4-yl)amino)methyl)-1H-1,2,3-triazol-1-yl)butyl)carbamoyl)pyridin-2-yl)-7-methoxy-N-methyl-4-(phenylamino)quinoline-3-carboxamide]
CNC(=O)c1cnc2ccc(-c3ccc(C(=O)NCCCCCCCCc4cccc5c4CN(C4CCC(=O)NC4=O)C5=O)cc3)cc2c1Nc1ccccc1 (stereo not drawn) [Compound 378, 4-anilino-6-[4-[8-[2-(2,6-dioxo-3-piperidyl)-1-oxo-isoindolin-4-yl]octylcarbamoyl]phenyl]-N-methyl-quinoline-3-carboxamide]
CNC(=O)c1cnc2cc(C(F)(F)F)c(-c3ccc(C(=O)NCCCCNC(=O)COc4cccc5c4C(=O)N(C4CCC(=O)NC4=O)C5=O)c(F)c3)cc2c1Nc1ccccc1 (stereo not drawn) [Compound 379, 6-(4-((4-(2-((2-(2,6-dioxopiperidin-3-yl)-1,3-dioxoisoindolin-4-yl)oxy)acetamido)butyl)carbamoyl)-3-fluorophenyl)-N-methyl-4-(phenylamino)-7-(trifluoromethyl)quinoline-3-carboxamide]
CNC(=O)c1cnc2cc(OC)c(-c3ccc(C(=O)NCCCCNC(=O)[C@@H](C)Nc4cccc5c4C(=O)N(C4CCC(=O)NC4=O)C5=O)nc3)cc2c1Nc1ccccc1 (stereo partly drawn) [Compound 382, 6-(6-((4-((2R)-2-((2-(2,6-dioxopiperidin-3-yl)-1,3-dioxoisoindolin-4-yl)amino)propanamido)butyl)carbamoyl)pyridin-3-yl)-7-methoxy-N-methyl-4-(phenylamino)quinoline-3-carboxamide]
CNC(=O)c1cnc2ccc(-c3ccc(CCCCCNC(=O)CNc4cccc5c4C(=O)N(C4CCC(=O)NC4=O)C5=O)nc3)cc2c1Nc1ccccc1 (stereo not drawn) [Compound 385, 4-anilino-6-[6-[5-[[2-[[2-(2,6-dioxo-3-piperidyl)-1,3-dioxo-isoindolin-4-yl]amino]acetyl]amino]pentyl]-3-pyridyl]-N-methyl-quinoline-3-carboxamide]
CNC(=O)c1cnc2cc(C(F)(F)F)c(-c3ccc(C(=O)NCCCCn4cc(CNc5cccc6c5C(=O)N(C5CCC(=O)NC5=O)C6=O)nn4)nc3)cc2c1Nc1ccccc1 (stereo not drawn) [Compound 386, 6-(6-((4-(4-(((2-(2,6-dioxopiperidin-3-yl)-1,3-dioxoisoindolin-4-yl)amino)methyl)-1H-1,2,3-triazol-1-yl)butyl)carbamoyl)pyridin-3-yl)-N-methyl-4-(phenylamino)-7-(trifluoromethyl)quinoline-3-carboxamide]
CNC(=O)c1cnc2ccc(-c3nc(C(=O)NCCCCNC(=O)CNc4cccc5c4C(=O)N(C4CCC(=O)NC4=O)C5=O)cs3)cc2c1Nc1ccccc1 (stereo not drawn) [Compound 387, 2-[4-anilino-3-(methylcarbamoyl)-6-quinolyl]-N-[4-[[2-[[2-(2,6-dioxo-3-piperidyl)-1,3-dioxo-isoindolin-4-yl]amino]acetyl]amino]butyl]thiazole-4-carboxamide]
CNC(=O)c1cnc2cc(C(F)(F)F)c(-c3ccc(C(=O)NCCCCNC(=O)CNc4cccc5c4C(=O)N(C4CCC(=O)NC4=O)C5=O)nc3)cc2c1Nc1ccccc1 (stereo not drawn) [Compound 388, 6-(6-((4-(2-((2-(2,6-dioxopiperidin-3-yl)-1,3-dioxoisoindolin-4-yl)amino)acetamido)butyl)carbamoyl)pyridin-3-yl)-N-methyl-4-(phenylamino)-7-(trifluoromethyl)quinoline-3-carboxamide]
CNC(=O)c1cnc2cc(F)c(-c3ccc(C(=O)NCCCCn4cc(CNc5cccc6c5C(=O)N(C5CCC(=O)NC5=O)C6=O)nn4)nc3)cc2c1Nc1ccccc1 (stereo not drawn) [Compound 389, 6-(6-((4-(4-(((2-(2,6-dioxopiperidin-3-yl)-1,3-dioxoisoindolin-4-yl)amino)methyl)-1H-1,2,3-triazol-1-yl)butyl)carbamoyl)pyridin-3-yl)-7-fluoro-N-methyl-4-(phenylamino)quinoline-3-carboxamide]
